The values below come from US6974837B2, “Compositions comprising sibutramine metabolites in combination with phosphodiesterase inhibitors” (Sepracor Inc., priority 1999, dated 2005).

As usually defined, the IC50 is the concentration that gives 50% inhibition.

Assay [1] deals with nonselective muscarinic receptor. The assay is described as follows: Binding at the nonselective muscarinic receptor. Also noted: species or system rat. The conditions noted are these: for IC50: rat cerebral cortex.
The target in assay [2] is human recombinant norepinephrine (NE) uptake site (Homo sapiens, UniProt P23975). As to the kind of experiment: Binding at the norepinephrine (NE) uptake site.
Assay [3] deals with serotonin (5-HT) uptake site (Rattus norvegicus, UniProt P31652).
Setting [4] is: human recombinant NE uptake site, read-out: Binding IC50 NE Uptake.

Where two headings read alike, the source gives them in different places.

Sequence of human recombinant norepinephrine (NE) uptake site (P23975 whole entry): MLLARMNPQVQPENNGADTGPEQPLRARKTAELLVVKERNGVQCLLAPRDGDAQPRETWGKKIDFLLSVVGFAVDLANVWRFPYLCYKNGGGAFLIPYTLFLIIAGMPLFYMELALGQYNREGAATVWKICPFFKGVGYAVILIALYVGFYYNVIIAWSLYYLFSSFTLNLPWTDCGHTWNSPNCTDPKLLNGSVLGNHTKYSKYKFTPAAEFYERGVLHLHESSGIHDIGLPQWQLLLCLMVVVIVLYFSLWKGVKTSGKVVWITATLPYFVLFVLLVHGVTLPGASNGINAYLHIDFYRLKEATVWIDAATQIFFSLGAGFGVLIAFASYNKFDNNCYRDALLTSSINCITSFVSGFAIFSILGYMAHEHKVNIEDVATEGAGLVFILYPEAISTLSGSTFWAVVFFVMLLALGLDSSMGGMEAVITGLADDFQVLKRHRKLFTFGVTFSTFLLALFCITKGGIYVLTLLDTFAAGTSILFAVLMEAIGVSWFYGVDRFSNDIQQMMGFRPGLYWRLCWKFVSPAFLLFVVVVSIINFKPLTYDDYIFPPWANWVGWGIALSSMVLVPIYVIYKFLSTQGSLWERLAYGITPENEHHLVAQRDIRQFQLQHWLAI
Sequence of serotonin (5-HT) uptake site (P31652 whole entry): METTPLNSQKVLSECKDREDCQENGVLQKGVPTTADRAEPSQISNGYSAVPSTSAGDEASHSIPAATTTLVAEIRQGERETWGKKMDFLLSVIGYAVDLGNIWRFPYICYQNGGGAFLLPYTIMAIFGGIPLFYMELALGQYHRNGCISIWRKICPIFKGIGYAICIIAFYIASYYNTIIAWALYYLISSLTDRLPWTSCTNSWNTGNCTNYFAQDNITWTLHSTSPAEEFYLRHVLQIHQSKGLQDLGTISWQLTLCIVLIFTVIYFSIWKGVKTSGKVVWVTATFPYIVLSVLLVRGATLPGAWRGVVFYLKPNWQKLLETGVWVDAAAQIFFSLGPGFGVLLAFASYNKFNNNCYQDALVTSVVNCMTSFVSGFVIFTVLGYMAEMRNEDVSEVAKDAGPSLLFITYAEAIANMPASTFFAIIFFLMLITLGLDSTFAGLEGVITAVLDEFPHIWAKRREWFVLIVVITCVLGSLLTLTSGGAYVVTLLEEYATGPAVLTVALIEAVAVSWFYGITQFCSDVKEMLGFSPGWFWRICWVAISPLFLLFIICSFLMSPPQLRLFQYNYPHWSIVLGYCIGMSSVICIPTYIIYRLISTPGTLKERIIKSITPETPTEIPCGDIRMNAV

In the case of `CNC(CC(C)C)C1(c2ccc(Cl)cc2)CCC1` (racemic) [(R/S)-desMe, 1-(4-chlorophenyl)-N-methyl-2-(2-methylpropyl)-cyclobutanamethamine], the IC50 in assay [1] came out at 1170 nM; in assay [2], 10 nM.
For `CN[C@H](CC(C)C)C1(c2ccc(Cl)cc2)CCC1` [(R)-desMe], the “affinity / activity at muscarinic site (in words)” value in assay [1] is recorded as “negligible activity”. For the same compound, the “NE uptake site binding / inhibition (in words)” value in assay [2] is “potent inhibitors”. Also, in assay [2] (setting [4]), the IC50 stood at 4 nM. Also, in assay [3], the “5-HT uptake site binding / inhibition (in words)” value was “potent inhibitors”.
With `CC(C)C[C@@H](N)C1(c2ccc(Cl)cc2)CCC1` [(R)-didesMe], in assay [1], the “affinity / activity at muscarinic site (in words)” value is “negligible activity”. Further, the “NE uptake site binding / inhibition (in words)” value in assay [2] is given as “potent inhibitors”. The IC50 in assay [2] (setting [4]) is 13 nM. Also, the “5-HT uptake site binding / inhibition (in words)” value in assay [3] is “potent inhibitors”.
As to `CN[C@@H](CC(C)C)C1(c2ccc(Cl)cc2)CCC1` [(S)-desMe], the figures for the IC50 in assay [1] and in assay [2] were 654 nM and 870 nM, respectively.
With `CN1[C@@H]2CC[C@H]1C[C@@H](OC(=O)C(CO)c1ccccc1)C2` (stereo partly shown) [Atropine, reference compound], in assay [1], the half-inhibitory concentration (IC50) turned out to be 0.31 nM.
